# Like-named read-outs stand apart in the source and are kept apart here.
# What was measured:
# [1] = target: T1, R232 variant of human STING (Homo sapiens, UniProt Q86WV6, H232R); test: Luciferase (ISRE.ISG reporter) assay in HEK293T cells stably expressing R232 hSTING; assay type: cell-based
# T1 construct: the ER fraction from R232.STING transfected HEK293T cells which contained full length STING
# From the text: (§1) • a) Stable STING expressing cells. Stable HEK293T STING-expressing cell lines were generated using plasmids purchased from Invivogen, CA, USA, that contain STING cDNA cloned into the pUNO-1 vector under the hEF1-HTLV promoter as well as the Blasticidin selection cassette. The human STING plasmids corresponding to the R232, H232 and HAQ variants were directly procured from Invivogen while the AQ and Q variants were created by mismatch PCR using cDNA from HAQ.STING and R232.STING variants respectively. These vectors were individually transfected into HEK293T cells using Lipofectamine (Invitrogen) and transfected cells were expanded under Blasticidin selection. These cells were further subjected to clonal selection using the limiting dilution method to obtain clonally pure populations of HEK293T cells expressing each of the five human STING variants. Clones with minimal ligand independent activation of STING were chosen for cellular experiments. • b) N-His R232.hSTING HEK293T cells. HEK293T cells stably expressing N-His R232.hSTING were generated by the following described method. N-His R232.hSTING.pcDNA Myc B plasmid was transfected into HEK293T cells using Lipofectamine reagent (Invitrogen) and the transfected cells were selected under Hygromycin. Stably STING expressing HEK293T cells thus selected were further subjected to single cell clonal selection using the limiting dilution method to obtain a clonally pure population of HEK293T cells expressing the human R232 STING variant.
# […] clonally selected HEK293T-hSTING-Luciferase cells or control HEK293T-Luciferase cells were seeded in 384-well plates in growth medium and stimulated with known STING agonists or novel compounds. […]
# [2] = target: H232 variant of human STING (Homo sapiens, UniProt Q86WV6); test: Luciferase (ISRE.ISG reporter) assay in HEK293T cells stably expressing H232 hSTING; assay type: cell-based; settings: ISRE.ISG54 luciferase reporter, 18 hours, read-out: estimated EC50, H232 variant
# From the text: as §1, with “HEK293T cells stably expressing N-His R232.hSTING were generated by the following described method. N-His R232.hSTING.pcDNA Myc B plasmid was transfected into HEK293T cells using Lipofectamine reagent (Invitrogen) and the transfected cells were selected under Hygromycin. Stably STING expressing HEK293T cells thus selected were further subjected to single cell clonal selection using the limiting dilution method to obtain a clonally pure population of HEK293T cells expressing the human R232 STING variant.” left out
# (§2) […] clonally selected HEK293T-hSTING-Luciferase cells or control HEK293T-Luciferase cells were seeded in 384-well plates in growth medium and stimulated with known STING agonists or novel compounds. Supernatants were removed after 20 hours of treatment and secretory reporter gene activity was measured using the Quanti-Luc detection system (Invivogen) on a Spectramax i3X luminometer.
# [3] = target: HAQ variant of human STING (Homo sapiens, UniProt Q86WV6, G230A/R293Q/R71H); test: Luciferase (ISRE.ISG reporter) assay in HEK293T cells stably expressing HAQ hSTING; assay type: cell-based; settings: ISRE.ISG54 luciferase reporter, 18 hours, compared with R232 and H232
# Chain of HAQ variant of human STING (Q86WV6 whole entry R71H/G230A/R293Q): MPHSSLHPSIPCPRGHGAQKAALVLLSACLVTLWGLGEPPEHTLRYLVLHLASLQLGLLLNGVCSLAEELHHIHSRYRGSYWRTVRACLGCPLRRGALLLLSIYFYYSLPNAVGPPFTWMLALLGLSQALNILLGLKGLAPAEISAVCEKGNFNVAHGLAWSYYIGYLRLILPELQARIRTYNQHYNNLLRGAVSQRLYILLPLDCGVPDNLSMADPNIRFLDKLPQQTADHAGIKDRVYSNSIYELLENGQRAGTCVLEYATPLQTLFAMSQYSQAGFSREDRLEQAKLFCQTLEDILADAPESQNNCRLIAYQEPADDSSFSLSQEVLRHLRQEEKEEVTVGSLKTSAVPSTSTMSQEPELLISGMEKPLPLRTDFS
# From the text: as §1, with “Stably STING expressing HEK293T cells thus selected were further subjected to single cell clonal selection using the limiting dilution method to obtain a clonally pure population of HEK293T cells expressing the human R232 STING variant.” left out
# [4] = target: T2, Q variant of human STING (Homo sapiens, UniProt Q86WV6, R293Q); test: Luciferase (ISRE.ISG reporter) assay in HEK293T cells stably expressing Q hSTING; assay type: cell-based
# T2 construct: expressed in transfected cells
# T2 sequence (Q86WV6 whole entry R293Q): as the sequence (Q86WV6 whole entry R71H/G230A/R293Q) above, with H71R, A230G counted along it
# From the text: as §1, with “HEK293T cells stably expressing N-His R232.hSTING were generated by the following described method. N-His R232.hSTING.pcDNA Myc B plasmid was transfected into HEK293T cells using Lipofectamine reagent (Invitrogen) and the transfected cells were selected under Hygromycin. Stably STING expressing HEK293T cells thus selected were further subjected to single cell clonal selection using the limiting dilution method to obtain a clonally pure population of HEK293T cells expressing the human R232 STING variant.” left out
# as §2
# [5] = target: T3, HAQ STING (THP-1 cells) (Homo sapiens, UniProt Q86WV6, G230A/R293Q/R71H); test: Western blot of pSTING and pIRF3 in THP-1 cells; assay type: cell-based; settings: immunoblot, 2 hours
# T3 construct: THP1 cells constitutively express the HAQ variant of human STING; host or cells: THP-1
# T3 sequence (Q86WV6 whole entry R71H/G230A/R293Q): as the sequence (Q86WV6 whole entry R71H/G230A/R293Q) above
# Method: (§3) 5 x 10^5 cells were seeded in 24-well plates in 500 μl growth medium and stimulated with novel compounds at 10μM. After 2 hours of treatment cells were harvested by centrifugation and cell pellets were lysed in RIPA buffer (20mM Tris-Cl, 150mM NaCl, 0.5mM EDTA, 1% NP40, 0.05% SDS) containing 1x phosphatase inhibitor cocktail 3 (Sigma) and 1x protease inhibitor (Roche) to extract the soluble fraction of protein. 10 μg of extracted protein was electrophoresed in 10% SDS-PAGE gels and transferred onto Immobilon-P membranes (Millipore).
# [6] = Solubility under assay conditions; assay type: physicochemical; settings: under our assay conditions; read-out: maximum solubility
# [7] = system: parent HEK293T cells; test: Luciferase assay in parent (control) HEK293T cells without STING; assay type: cell-based, human; settings: HEK293T cells that do not express STING (S1 Fig)
# Method: as §2
# [8] = target: T4, recombinant CTT domain of R232 STING (Homo sapiens, UniProt Q86WV6, H232R); test: In vitro kinase assay, recombinant CTT domain of R232 STING plus recombinant TBK1; assay type: biochemical; settings: cell free, immunoblot
# T4 construct: corresponding to the soluble domain of STING (138 to 379 aa) protein; purchased Cayman Chemicals (STING); Invitrogen (TBK1) 22816 (STING); A31514 (TBK1)
# T4 sequence (Q86WV6 138-379 H232R): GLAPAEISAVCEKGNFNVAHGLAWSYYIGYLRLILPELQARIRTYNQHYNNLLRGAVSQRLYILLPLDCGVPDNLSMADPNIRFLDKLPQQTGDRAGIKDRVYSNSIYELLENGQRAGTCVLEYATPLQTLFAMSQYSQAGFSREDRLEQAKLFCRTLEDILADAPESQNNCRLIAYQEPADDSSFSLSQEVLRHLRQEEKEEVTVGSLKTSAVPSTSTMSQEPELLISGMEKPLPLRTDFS
# Method: 50ng of recombinant STING protein (Cayman Chemicals Cat# 22816) corresponding to the soluble domain of STING (138 to 379 aa) protein or 1 μl of ER fraction (8mg/ml) containing full length STING from R232.hSTING was incubated with 20 ng of recombinant full length TBK1 protein (Invitrogen, Cat# A31514) in the presence/absence of test compound in 20 μl reaction buffer (50mM Tris-HCl of pH 7.4, 100mM NaCl, 5mM MgCl2, 5mM MnCl2, 10% glycerol, 0.2mM Na3VO4, 20mM β-glycero-PO4, 0.5mM ATP) and 0.01% BSA at 30 °C for 45 min. The reaction was quenched by addition of 2 μl of 10X EDTA to a final concentration of […]. Samples were treated with 4x gel loading dye followed by electrophoresis in 10% SDS-PAGE gels and transferred to Immobilon-P membranes (Millipore). […] Anti-rabbit HRP labelled secondary antibody (Abcam) and Clarity Max™ western ECL substrate (Biorad, Cat# 1705062) were used for visualization of bands using a BioRad XRS plus imager.
# [9] = target: TBK1 (Homo sapiens, UniProt Q9UHD2); test: TBK1 kinase assay in the presence of G10; assay type: biochemical; settings: S1 Table
# Chain of TBK1 (Q9UHD2 whole entry): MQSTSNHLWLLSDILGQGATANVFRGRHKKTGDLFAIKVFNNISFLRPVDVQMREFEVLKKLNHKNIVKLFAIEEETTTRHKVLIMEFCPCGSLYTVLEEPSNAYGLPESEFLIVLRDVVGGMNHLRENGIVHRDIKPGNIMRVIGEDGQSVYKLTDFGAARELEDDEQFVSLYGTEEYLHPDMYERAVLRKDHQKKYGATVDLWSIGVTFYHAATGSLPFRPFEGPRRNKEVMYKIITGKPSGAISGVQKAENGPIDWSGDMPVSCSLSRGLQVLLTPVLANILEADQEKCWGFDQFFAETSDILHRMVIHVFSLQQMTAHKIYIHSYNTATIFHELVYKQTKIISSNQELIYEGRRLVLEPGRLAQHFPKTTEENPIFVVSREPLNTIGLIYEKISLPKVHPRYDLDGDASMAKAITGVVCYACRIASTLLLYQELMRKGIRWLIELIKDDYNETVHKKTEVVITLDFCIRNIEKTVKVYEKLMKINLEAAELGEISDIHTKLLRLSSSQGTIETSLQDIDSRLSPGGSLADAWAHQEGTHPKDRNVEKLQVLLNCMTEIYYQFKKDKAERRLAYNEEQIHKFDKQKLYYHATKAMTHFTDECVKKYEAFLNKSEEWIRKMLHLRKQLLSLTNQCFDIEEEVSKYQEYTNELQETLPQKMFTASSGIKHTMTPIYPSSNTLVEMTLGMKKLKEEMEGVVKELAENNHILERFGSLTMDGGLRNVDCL
# [10] = target: T5, R232.hSTING (CT26 cells) (Homo sapiens, UniProt Q86WV6, H232R); test: Western blot of Hu-pSTING and pIRF3 in R232.hSTING.CT26 cells; assay type: cell-based; settings: immunoblot, 2 hours
# T5 construct: expressed in transfected cells; host or cells: CT26 (murine)
# T5 sequence (Q86WV6 whole entry H232R): as the sequence (Q86WV6 whole entry R71H/G230A/R293Q) above, with H71R, A230G, H232R, Q293R counted along it
# Method: as §3
# [11] = system: THP1 cells; set-up: method as in PMID 26646986; settings: cited from earlier work
# [12] = system: ligand binding domain of the R232 variant of STING; set-up: method as in PMID 26646986; settings: cited from earlier work
# [13] = target: R232 STING (R232-HEK293T cells) (Homo sapiens, UniProt Q86WV6, H232R); test: Ligand induced change in STING melting temperature, R232-HEK293T whole cells; settings: whole cells (S8 and S9 Figs)
# Chain of R232 STING (R232-HEK293T cells) (Q86WV6 whole entry H232R): as the sequence (Q86WV6 whole entry R71H/G230A/R293Q) above, with H71R, A230G, H232R, Q293R counted along it
# Method: Two sources of STING (ER fraction of N-His R232.hSTING HEK293T and R232.hSTING HEK293T whole cells) were used for melting temperature experiments. […] (b) 5 x 10^5 R232.hSTING cells were seeded in 24-well plates in 500 μl growth medium and stimulated with serially diluted concentrations of agonist. After 2hr of stimulation cells were harvested through centrifugation and 20 μl cells suspensions were transferred into 0.2 ml PCR-tubes and heated as above. All procedures were identical post-heating of samples. […] Precipitated proteins were separated from the soluble fraction by centrifugation at 21000g for 20 min at 4 °C. Extracted soluble protein was electrophoresed in 10% SDS-PAGE gels and transferred onto Immobilon-P membranes (Millipore). Blots were incubated with antibodies specific for total STING (Cell Signaling).
# T1 sequence (Q86WV6 whole entry H232R): as the sequence (Q86WV6 whole entry R71H/G230A/R293Q) above, with H71R, A230G, H232R, Q293R counted along it
smiles,measurement,setting,value
"O=C(NCc1ccco1)c1ccc2c(c1)N(Cc1c(F)cccc1Cl)C(=O)CS2 [Compound G10, 4-(2-Chloro-6-fluorobenzyl)-N-(furan-2-ylmethyl)-3-oxo-3,4-dihydro-2H-benzo[b][1,4]thiazine-6-carboxamide]",EC50,"[1]; HEK293T cells expressing R232 hSTING, luciferase reporter, read-out: HEK.R232 EC50",2490 nM
same,EC50,"[1]; ISRE.ISG54 luciferase reporter, HEK293T, 18 hours, read-out: estimated EC50, R232 variant",2500 nM
same,EC50,[2],4300 nM
same,activity against the HAQ variant,[3],less active
same,activity against the Q variant,[4],barely active
same,"phosphorylation of STING and IRF3 (pSTING, pIRF3) in THP1 cells",[5],unable to detect either pSTING or pIRF3
same,solubility,[6],20 µM
same,response of parent HEK293T cells (reporter gene expression),[7],unresponsive
same,"formation of pSTING by TBK1, recombinant CTT domain of R232 STING",[8],activated
same,effect on TBK-1 enzyme,[9],does not inhibit or activate
same,phosphorylated hSTING (and mIRF3) in CT26 cells overexpressing R232.hSTING,[10],significant amounts
same,activation of IRF3 or NFκB linked reporters in THP1,[11],unable to activate
same,direct engagement with ligand binding domain of R232 STING (DSF),[12],no evidence of direct engagement
same,"ligand induced change in STING melting temperature, R232-HEK293T cells",[13],did not demonstrate a significant ligand induced change
